Source: patent US7473705B2, “Hexafluoroisopropanol substituted ether derivatives” (Hoffmann-LA Roche Inc., priority 2004, dated 2009)

Tests used:
human LXR beta = molecular target: T1, human LXR beta (Homo sapiens, UniProt P55055); test: Radioligand binding assay (scintillation proximity), LXR beta; conditions: GST-LXR beta-LBD on SPA beads, radioligand displacement; read-out: LXRbeta Binding IC50
T1 construct: human LXR beta (aa 155 to 460); made in house; host or cells: E. coli BL21(pLysS)
T1 sequence (P55055 155-460): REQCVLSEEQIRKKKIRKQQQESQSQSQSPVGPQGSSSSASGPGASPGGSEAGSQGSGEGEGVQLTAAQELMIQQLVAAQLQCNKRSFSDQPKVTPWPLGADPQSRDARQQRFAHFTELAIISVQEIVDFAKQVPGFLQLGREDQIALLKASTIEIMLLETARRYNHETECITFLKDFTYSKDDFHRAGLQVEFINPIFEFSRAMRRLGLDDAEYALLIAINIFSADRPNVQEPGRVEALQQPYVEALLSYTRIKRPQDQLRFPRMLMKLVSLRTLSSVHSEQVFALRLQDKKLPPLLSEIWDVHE
Text: (§1) Mammalian expression vectors were constructed to express full-length human LXR alpha and LXR beta. Bacterial expression vectors were constructed to produce glutathione-s-transferase (GST) fused to the ligand binding domains (LBD) of human LXR alpha (aa 164 to 447) and human LXR beta (aa 155 to 460). To accomplish this, the portions of the sequences encoding the LBDs were amplified from full-length clones by PCR and then subcloned into the plasmid vectors. Final clones were verified by DNA sequence analysis (Willy et al., Genes Dev. 1995, 9:1033-45; Song et al., Proc Natl Acad Sci USA. 1994, 91:10809-13).
(§2) Induction, expression, and purification of GST-LBD fusion proteins were performed in E. coli strain BL21(pLysS) cells by standard methods (Ref: Current Protocols in Molecular Biology, Wiley Press, edited by Ausubel et al).
(§3) LXR alpha and LXR beta receptor binding were assayed in buffer consisting of 50 mM HEPES, pH 7.4, 10 mM NaCl, 5 mM MgCl2. For each 96-well reaction, 500 ng of GST-LXR alpha-LBD or 700 ng of GST-LXR beta-LBD fusion proteins were bound to 80 μg or 40 μg SPA beads (Pharmacia Amersham) respectively, in a final volume of 50 μl by shaking. The resulting slurry was incubated for 1 h at RT and centrifuged for 2 min at 1300×g. The supernatant containing unbound protein was removed, and the semi-dry pellet containing the receptor-coated beads was re-suspended in 50 μl of buffer. Radioligand (eg. 100,000 dpm of (N-(2,2,2-trifluoroethyl)-N-[4-(2,2,2-trifluoro-1-hydroxy-1-trifluoromethylethyl)-phenyl]-benzenesulfonamide)) was added, and the reaction incubated at RT for 1 h in the presence of test compounds, and then scintillation proximity counting was performed. All binding assays were performed in 96-well plates and the amount of bound ligand was measured on a Packard TopCount using OptiPlates (Packard). Dose response curves were measured within a range of concentration from 10^−10 M to 10^−4 M.

human LXR alpha = molecular target: T2, human LXR alpha (Homo sapiens, UniProt Q13133); test: Radioligand binding assay (scintillation proximity), LXR alpha; conditions: GST-LXR alpha-LBD on SPA beads, radioligand displacement; read-out: LXRalpha Binding IC50
T2 construct: human LXR alpha (aa 164 to 447); made in house; host or cells: E. coli BL21(pLysS)
T2 sequence (Q13133 164-447): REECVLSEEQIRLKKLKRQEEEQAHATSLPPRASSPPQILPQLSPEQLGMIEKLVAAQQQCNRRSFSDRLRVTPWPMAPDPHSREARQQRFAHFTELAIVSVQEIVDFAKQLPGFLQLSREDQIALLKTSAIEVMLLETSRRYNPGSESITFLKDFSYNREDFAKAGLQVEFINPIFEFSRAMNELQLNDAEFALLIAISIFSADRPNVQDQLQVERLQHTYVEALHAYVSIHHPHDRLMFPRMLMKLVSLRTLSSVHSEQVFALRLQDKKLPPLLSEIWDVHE
Text: as §1, §2, §3

| Compound | IC50 (human LXR beta) [nM] | IC50 (human LXR alpha) [nM] |
| --- | --- | --- |
| OC(c1ccc(OCc2ccccc2)c(Cl)c1)(C(F)(F)F)C(F)(F)F [Example 13, 2-(4-Benzyloxy-3-chloro-phenyl)-1,1,1,3,3,3-hexafluoro-propan-2-ol] | 236 | 237 |
| Cc1oc(-c2cccc(Cl)c2)nc1COc1ccc(C(O)(C(F)(F)F)C(F)(F)F)cc1Cl [Example 57, 2-{3-Chloro-4-[2-(3-chloro-phenyl)-5-methyl-oxazol-4-ylmethoxy]-phenyl}-1,1,1,3,3,3-hexafluoro-propan-2-ol] | 22.7 | 33 |
| COC(=O)c1ccc(OC(COc2ccc(C(O)(C(F)(F)F)C(F)(F)F)cc2)c2ccccc2)cc1 (racemic) [Example 11, rac 4-{1-Phenyl-2-[4-(2,2,2-trifluoro-1-hydroxy-1-trifluoromethyl-ethyl)-phenoxy]-ethoxy}-benzoic acid methyl ester] | 14 | 93 |
